# Experiments:
# D2R = assay: Simulation of receptor occupancy over time from kon and koff; conditions: simulation with a KD concentration of each agonist
# Text: We extended these studies with a Tag-lite receptor binding assay using a D2R construct with an amino-terminal SNAP tag and the fluorescently labelled agonist (±)-4′-amino-2-(N-phenethyl-N-propyl)-amino-5-hydroxytetralin (PPHT). […] The association rate of a ligand is often thought to be diffusion limited. […] Using these kinetic parameters, we performed a simulation to estimate the receptor occupancy of a KD concentration of each agonist over time (Fig. 4e).
# Kinetic binding parameters of kon (a), koff (b) and t1/2 (c) were determined in a competition kinetic binding assay using a Tag-lite binding assay and the fluorescently labelled agonist PPHT as the tracer ligand (Supplementary Table 6). […] All values are expressed as mean±s.e.m. from three experiments. (e) The values of kon and koff obtained in the competition kinetic assay were used to simulate receptor occupancy over time using equation (9) and the concentration of ligand equivalent to its KD (see Supplementary Table 6).
# where Ymax reflects maximum binding of a concentration of ligand and kob is determined by equation (8).
# [1] = molecular target: SNAP-tagged human dopamine D2L (Homo sapiens, UniProt P14416); assay: Tag-lite PPHT-red competition kinetic binding (HTRF); conditions: SNAP-D2LR-CHO membranes; 100 μM Gpp(NH)p; 37 °C
# SNAP-tagged human dopamine D2L, sequence (P14416 whole entry): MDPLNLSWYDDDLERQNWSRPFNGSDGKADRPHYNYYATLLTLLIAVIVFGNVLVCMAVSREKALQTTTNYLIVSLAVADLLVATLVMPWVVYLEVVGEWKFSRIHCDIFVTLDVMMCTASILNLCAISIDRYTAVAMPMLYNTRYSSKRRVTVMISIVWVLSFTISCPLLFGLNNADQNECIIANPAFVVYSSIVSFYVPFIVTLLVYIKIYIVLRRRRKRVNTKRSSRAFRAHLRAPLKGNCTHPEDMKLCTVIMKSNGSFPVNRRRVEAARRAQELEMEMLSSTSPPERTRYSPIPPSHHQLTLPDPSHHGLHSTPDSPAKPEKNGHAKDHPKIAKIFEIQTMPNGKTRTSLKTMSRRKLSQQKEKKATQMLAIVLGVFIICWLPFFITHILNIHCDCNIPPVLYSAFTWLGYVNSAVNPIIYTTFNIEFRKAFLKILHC
# Method: To terbium label the SNAP-CHO-D2L cells, cell culture medium was removed from the T175 cm^2 flasks containing confluent adherent SNAP-CHO-D2L cells. Twelve millilitres of Tag-lite labelling medium containing 100 nM of SNAP-Lumi4-Tb was added to the flask and incubated for 1 h at 37 °C under 5% CO2. Cells were then washed 2 × in 15 ml PBS (GIBCO, Invitrogen, Paisley, UK) to remove the excess of SNAP-Lumi4-Tb and detached using 5 ml of enzyme-free Hank's-based cell dissociation buffer (GIBCO, Invitrogen, Paisley, UK) and collected in a vial containing 5 ml of DMEM/Nutrient F-12 Ham, 2 mM glutamine supplemented 10% FCS. Cells were pelleted by centrifugation (5 min at 1,500 r.p.m.) and the pellets were frozen to −80 °C before preparation of membranes.
# All subsequent steps described were conducted at 4 °C, to avoid receptor degradation. Twenty millilitres of wash buffer (10 mM HEPES and 10 mM EDTA pH 7.4) was added to the pellet of terbium-labelled cells (equivalent to 1 × t175 cm^2). […] The supernatant was discarded and the pellet was homogenized and centrifuged as described above in wash buffer. The final pellet was suspended in ice-cold 10 mM HEPES and 0.1 mM EDTA pH 7.4, at a concentration of 5–10 mg m^−1. Protein concentration was determined by the bicinchoninic acid assay using BSA as a standard and aliquots maintained at −80 °C until required. Before their use, the frozen membranes were thawed and the membranes suspended in the assay buffer at a membrane concentration of 0.1 mg m^−1.
# GppNHp was included to remove the G protein-coupled population of receptors that can result in two binding sites in membrane preparations, because the Motulsky–Mahan model is only appropriate for ligands competing at a single site. […] Both fluorescent ligands and unlabelled compounds were diluted in the binding assay buffer.
# Kinetics acquisitions at intervals of 20 s were recorded using the standard settings of the reader for HTRF measurements. […] Specific binding was determined by subtracting the nonspecific HTRF ratio from the total HTRF ratio.
# To accurately determine association rate (kon) and dissociation rate (koff) values, the observed rate of association (kob) was calculated using at least four different concentrations of PPHT-red. The appropriate concentration of PPHT-red was incubated in a 384-well Optiplate with human SNAP-D2LR-CHO cell membranes (2 μg per well) in assay binding buffer at 37 °C (final assay volume, 40 μl). The degree of PPHT-red bound to the receptor was assessed at multiple time points by HTRF detection, to allow construction of association kinetic curves. The resulting data were globally fitted to the association kinetic model (equation (8)) to derive a single best-fit estimate for kon and koff as described under ‘Data analysis'.
# On the same 384-well Optiplate plate, the kinetic parameters of unlabelled ligand were assessed using a competition kinetic binding assay. This approach involves the simultaneous addition of both fluorescent ligand and competitor to receptor preparation so that at t=0 all receptors are unoccupied. […] The degree of PPHT-red bound to the receptor was assessed at multiple time points by HTRF detection. Nonspecific binding was determined as the amount of HTRF signal detected in the presence of spiperone (1 μM) and was subtracted from each time point. Each time point was conducted on the same 384-well plate incubated at 37 °C with shaking (100 r.p.m.) after every cycle.
# Data were globally fitted using equation (7), to simultaneously calculate kon and koff.
Compound,time to maximal receptor occupancy (D2R) [min],rate of dissociation of the fluorescent tracer [1] [min⁻¹]
"CN(C)C(=O)N[C@H]1CC[C@H](CCN2CCN(c3cccc(Cl)c3Cl)CC2)CC1 [Cariprazine, cariprazine]",~10,–
"NCCc1ccc(O)c(O)c1 [Dopamine, dopamine]",≤ 1,–
"CCCN(CCc1ccc(N)cc1)C1CCc2c(O)cccc2C1 (racemic) [PPHT, (±)-4′-amino-2-(N-phenethyl-N-propyl)-amino-5-hydroxytetralin]",–,0.45
